Experiments:
Assay type in all cases: physicochemical
[1] = Stability of multivitamin soft capsules in container with channel former and absorbent embedded in the inside walls, 40° C./75% RH
Source text: (§1) Multivitamin soft capsules (active-compound composition and capsule shell as described below) are introduced individually into a thermoformed cavity film made from PVC 250 μm+40 g/m^2 of PVDC and heat-sealed with aluminium foil (20 μm) and into a resealable container in/on the inside wall(s) of which at least one channel former is embedded, at least over part of the area, together with at least one absorbent (type: M-3006-16 Activ-Vial) in the inside walls of which a molecular sieve having a capacity of 1.92 g is embedded.
(§2) The blisters and containers containing the multivitamin soft capsules are stored at 40° C. and 75% relative humidity (RH), removed from storage after predetermined times, assessed visually with respect to their appearance and investigated analytically with respect to the amounts of active compound present. The results are compiled in Tables 1 and 2.

[2] = Stability of multivitamin soft capsules in PVC/PVDC-aluminium blister, 40° C./75% RH
Source text: as §1, §2

[3] = Stability of multivitamin soft capsules in container with channel former and absorbent embedded in the inside walls, 30° C./65% RH
Protocol: as §1, with “introduced” for “introduced individually into a thermoformed cavity film made from PVC 250 μm+40 g/m^2 of PVDC and heat-sealed with aluminium foil (20 μm) and”
The multivitamin soft capsules are stored at 30° C. and 65% relative humidity (RH), removed from storage after predetermined times, assessed visually with respect to their appearance and investigated analytically with respect to the amounts of active compound present.

[4] = Multivitamin soft capsule batch 9018802, 6 months
[5] = Multivitamin soft capsule batch 9018802, Start
[6] = Multivitamin soft capsule batch 9018401, 3 months
[7] = Multivitamin soft capsule batch 9018401, Start
[8] = Multivitamin soft capsule batch GD 06 0045, 6 months
[9] = Multivitamin soft capsule batch GD 06 0045, Start

| Compound | amount of active compound present [1, 4] [mg/capsule] | amount of active compound present, % of start [1, 4] [%] | amount of active compound present [1, 5] [mg/capsule] | amount of active compound present, % of start [1, 5] [%] | amount of active compound present [2, 6] [mg/capsule] | amount of active compound present, % of start [2, 6] [%] | amount of active compound present [2, 7] [mg/capsule] | amount of active compound present, % of start [2, 7] [%] | amount of active compound present [3, 8] [mg/capsule] | amount of active compound present, % of start [3, 8] [%] | amount of active compound present [3, 9] [mg/capsule] | amount of active compound present, % of start [3, 9] [%] |
| --- | --- | --- | --- | --- | --- | --- | --- | --- | --- | --- | --- | --- |
| O=C1O[C@H]([C@@H](O)CO)C(O)=C1O [Ascorbic acid] | 210 | 99 | 213 | 100 | 159 | 76 | 209 | 100 | 115.0 | 95 | 120.5 | 100 |
| O=C(O)CCCC[C@@H]1SC[C@@H]2NC(=O)N[C@@H]21 [Biotin] | – | – | – | – | – | – | – | – | 0.185 | 105 | 0.176 | 100 |
| CC(C)(CO)[C@@H](O)C(=O)NCCC(=O)[O-].CC(C)(CO)[C@@H](O)C(=O)NCCC(=O)[O-].[Ca+2] [Calcium panthotenate] | – | – | – | – | – | – | – | – | 14.9 | 96 | 15.6 | 100 |
| CC(C)(CO)[C@@H](O)C(=O)NCCCO [Dexpanthenol] | 12.8 | 96 | 13.3 | 100 | 9.7 | 72 | 13.5 | 100 | – | – | – | – |
| Nc1nc2ncc(CNc3ccc(C(=O)N[C@@H](CCC(=O)O)C(=O)O)cc3)nc2c(=O)[nH]1 [Folic acid] | 0.520 | 87 | 0.60 | 100 | 0.57 | 92 | 0.62 | 100 | 0.603 | 104 | 0.581 | 100 |
| NC(=O)c1cccnc1 [Nicotinamide] | – | – | – | – | – | – | – | – | 20.1 | 98 | 20.6 | 100 |
| Cc1ncc(CO)c(CO)c1O.Cl [Pyridoxine*HCL] | – | – | – | – | – | – | – | – | 3.39 | 94 | 3.60 | 100 |
| Cc1cc2nc3c(=O)[nH]c(=O)nc-3n(C[C@H](O)[C@H](O)[C@H](O)CO)c2cc1C [Riboflavin] | – | – | – | – | – | – | – | – | 2.23 | 107 | 2.09 | 100 |
| Cc1ncc(C[n+]2csc(CCO)c2C)c(N)n1.Cl.[Cl-] [Thiamine*HCL] | 19.3 | 98 | 19.6 | 100 | 17.1 | 87 | 19.7 | 100 | – | – | – | – |
| CC(=O)Oc1c(C)c(C)c2c(c1C)CCC(C)(CCC[C@H](C)CCC[C@H](C)CCCC(C)C)O2 (some centres unmarked) [Tocopherol acetate] | – | – | – | – | – | – | – | – | 19.8 | 99 | 20.0 | 100 |
| CC1=C(/C=C/C(C)=C/C=C/C(C)=C/C=C/C=C(C)/C=C/C=C(C)/C=C/C2=C(C)CCCC2(C)C)C(C)(C)CCC1 [β-Carotene] | – | – | – | – | – | – | – | – | 2.0 | 87 | 2.3 | 100 |
| Cyanocobalamine | 0.173 | 82 | 0.21 | 100 | 0.171 | 86 | 0.199 | 100 | 0.0158 | 97 | 0.0163 | 100 |

Source: patent US20100065444A1, “PACK CONTAINING SOFT CAPSULES” (priority 2007, published 2010)
